Patent publication US8575321B2, “Benzylbenzene derivatives and methods of use” (Theracos, Inc., priority 2007, dated 2013)

What was measured:
[1] = biological target: T1, human SGLT2 (Homo sapiens, UniProt P31639); assay: Methyl-α-D-[U-14C]glucopyranoside uptake assay in HEK293.ETN cells stably expressing human SGLT2; assay type: cell-based; conditions: 1.5 h incubation
T1 construct: A full-length cDNA clone expressing human SGLT2
T1 sequence (P31639 1-672): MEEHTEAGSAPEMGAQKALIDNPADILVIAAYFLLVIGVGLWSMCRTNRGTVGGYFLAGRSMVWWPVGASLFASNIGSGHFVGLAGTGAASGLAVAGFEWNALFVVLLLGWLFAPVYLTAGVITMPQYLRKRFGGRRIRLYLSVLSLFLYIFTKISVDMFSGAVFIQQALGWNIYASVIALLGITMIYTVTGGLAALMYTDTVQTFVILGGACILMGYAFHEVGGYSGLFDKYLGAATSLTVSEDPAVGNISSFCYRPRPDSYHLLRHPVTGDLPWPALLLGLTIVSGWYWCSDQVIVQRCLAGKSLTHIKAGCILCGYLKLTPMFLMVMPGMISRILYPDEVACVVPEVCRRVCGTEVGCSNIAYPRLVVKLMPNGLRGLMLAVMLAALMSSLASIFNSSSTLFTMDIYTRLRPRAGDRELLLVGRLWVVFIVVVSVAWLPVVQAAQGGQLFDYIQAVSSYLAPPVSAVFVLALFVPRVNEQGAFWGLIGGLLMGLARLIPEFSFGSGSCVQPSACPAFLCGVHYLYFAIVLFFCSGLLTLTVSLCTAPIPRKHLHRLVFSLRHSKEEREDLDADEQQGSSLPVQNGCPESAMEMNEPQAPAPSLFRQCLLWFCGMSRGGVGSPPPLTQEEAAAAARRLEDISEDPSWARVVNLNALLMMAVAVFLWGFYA
Excerpt: A full-length cDNA clone expressing human SGLT2 (GenScript Corporation) was subcloned into Hind III and Not I sites of pEAK15 expression vector. Clones harboring the cDNA inserts were identified by restriction analysis.
Plasmid containing human SGLT2 was linearized with Nsi I and purified by agarose gel electrophoresis. Using Lipofectamine 2000 Transfection Reagent (Invitrogen Corporation), DNA was transfected into HEK293.ETN cells and cultured in Dulbecco's Modified Eagle Medium (DMEM) containing 10% fetal bovine serum (FBS) at 37° C. under 5% CO2 for 24 h. Transfectants were selected in the same growth medium supplemented with puromycin (Invitrogen Corporation) for two weeks. Puromycin-resistant cells were recovered and seeded on a fresh 96-well plate (single cell per well) and cultured in the presence of puromycin until cells became confluent. Puromycin-resistant clones were evaluated for SGLT2 activity in the methyl-α-D-[U-^14C]glucopyranoside uptake assay described below.
(§1) Cells expressing SGLT1 or SGLT2 were seeded on 96-well ScintiPlate scintillating plates (PerkinElmer, Inc.) in DMEM containing 10% FBS (1×10^5 cells per well in 100 μl medium) incubated at 37° C. under 5% CO2 for 48 h prior to the assay. Cells were washed twice with 150 μl of either sodium buffer (137 mM NaCl, 5.4 mM KCl, 2.8 mM CaCl2, 1.2 mM MgCl2, 10 mM tris(hydroxymethyl)aminomethane/N^2-hydroxyethylpiperazine-N′-ethanesulfonic acid [Tris/Hepes], pH 7.2) or sodium-free buffer (137 mM N-methyl-glucamine, 5.4 mM KCl, 2.8 mM CaCl2, 1.2 mM MgCl2, 10 mM Tris/Hepes, pH 7.2). Test compound in 50 μl each of sodium or sodium-free buffer containing 40 μCi/ml methyl-α-D-[U-^14C]glucopyranoside (Amersham Biosciences/GE Healthcare), either with (symbols in parentheses) or without (symbols without parentheses) 25% human serum, was added per well of a 96-well plate and incubated at 37° C. with shaking for either 2 h (SGLT1 assay) or 1.5 h (SGLT2 assay). Cells were washed twice with 150 μl of wash buffer (137 mM N-methylglucamine, 10 mM Tris/Hepes, pH 7.2) and methyl-α-D-[U-^14C]glucopyranoside uptake was quantitated using a TopCount scintillation counter (PerkinElmer, Inc.). Sodium-dependent glucopyranoside uptake was measured by subtracting the values obtained with sodium-free buffer from those obtained using sodium buffer (average of triplicate determinations).

[2] = biological target: T2, human SGLT1 (Homo sapiens, UniProt P13866); assay: Methyl-α-D-[U-14C]glucopyranoside uptake assay in COS-7 cells expressing human SGLT1; assay type: cell-based; conditions: 2 h incubation
T2 construct: Full-length human SGLT1 cDNA on pDream2.1 expression vector; host or cells: COS-7 cells (American Type Culture Collection)
T2 sequence (P13866 1-664): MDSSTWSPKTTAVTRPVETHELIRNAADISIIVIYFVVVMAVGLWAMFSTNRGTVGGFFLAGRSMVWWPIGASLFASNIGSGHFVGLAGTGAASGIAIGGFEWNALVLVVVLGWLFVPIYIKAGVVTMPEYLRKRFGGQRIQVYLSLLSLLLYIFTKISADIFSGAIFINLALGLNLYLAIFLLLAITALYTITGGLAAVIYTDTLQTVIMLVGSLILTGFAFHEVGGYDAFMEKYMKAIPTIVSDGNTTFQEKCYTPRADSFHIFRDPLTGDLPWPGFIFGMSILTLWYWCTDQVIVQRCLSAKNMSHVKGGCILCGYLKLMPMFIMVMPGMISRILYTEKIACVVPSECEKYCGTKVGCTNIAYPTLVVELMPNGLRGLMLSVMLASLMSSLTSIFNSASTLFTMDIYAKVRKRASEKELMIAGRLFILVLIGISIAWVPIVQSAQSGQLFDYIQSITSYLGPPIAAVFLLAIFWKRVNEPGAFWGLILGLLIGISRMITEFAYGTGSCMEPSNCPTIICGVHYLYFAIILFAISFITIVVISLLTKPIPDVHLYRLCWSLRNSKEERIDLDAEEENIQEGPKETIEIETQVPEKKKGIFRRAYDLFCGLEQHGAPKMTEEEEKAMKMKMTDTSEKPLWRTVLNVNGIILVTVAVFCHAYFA
Experimental: Full-length human SGLT1 cDNA on pDream2.1 expression vector was obtained from GenScript Corporation and propagated in Escherichia coli strain DH5α using Luria-Bertani (LB) medium containing ampicillin. Plasmid DNA was isolated using the QIAGEN Plasmid Midi Kit (QIAGEN Inc.). […] Transfected cells were stored in DMEM containing 10% dimethyl sulfoxide (DMSO) at −80° C.
as §1

[3] = incubation with 25% human serum (symbols in parentheses)
[4] = without human serum (symbols without parentheses)

Row | Compound | IC50 [1, 3] [nM] | IC50 [2, 3] [µM] | IC50 [1, 4] [nM] | IC50 [2, 4] [µM]
1 | OC[C@H]1O[C@@H](c2ccc(Cl)c(Cc3ccc(CCCOC4CC4)cc3)c2)[C@H](O)[C@@H](O)[C@@H]1O [Compound DJ, (2S,3R,4R,5S,6R)-2-(4-chloro-3-(4-(3-cyclopropoxypropyl)benzyl)phenyl)-6-(hydroxymethyl)tetrahydro-2H-pyran-3,4,5-triol] | < 1000 | 1 to 10 |  | 
2 | COCCOCCOc1ccc(Cc2cc([C@@H]3O[C@H](CO)[C@@H](O)[C@H](O)[C@H]3O)ccc2Cl)cc1 [Compound M, (2S,3R,4R,5S,6R)-2-(4-chloro-3-(4-(2-(2-methoxyethoxy)ethoxy)benzyl)phenyl)-6-(hydroxymethyl)tetrahydro-2H-pyran-3,4,5-triol] |  |  | < 1000 | 1 to 10
3 | C=CCOCCOc1ccc(Cc2cc([C@@H]3O[C@H](CO)[C@@H](O)[C@H](O)[C@H]3O)ccc2Cl)cc1 [Compound P, (2S,3R,4R,5S,6R)-2-(3-(4-(2-(allyloxy)ethoxy)benzyl)-4-chlorophenyl)-6-(hydroxymethyl)tetrahydro-2H-pyran-3,4,5-triol] | < 1000 | 1 to 10 |  | 
4 | C#CCOCCOc1ccc(Cc2cc([C@@H]3O[C@H](CO)[C@@H](O)[C@H](O)[C@H]3O)ccc2Cl)cc1 [Compound R, (2S,3R,4R,5S,6R)-2-(4-chloro-3-(4-(2-(prop-2-ynyloxy)ethoxy)benzyl)phenyl)-6-(hydroxymethyl)tetrahydro-2H-pyran-3,4,5-triol] | < 1000 | 1 to 10 |  | 
5 | C#CCOCC(C)Oc1ccc(Cc2cc([C@@H]3O[C@H](CO)[C@@H](O)[C@H](O)[C@H]3O)ccc2Cl)cc1 (stereo partly drawn) [Compound T, (2S,3R,4R,5S,6R)-2-(4-chloro-3-(4-(1-(prop-2-ynyloxy)propan-2-yloxy)benzyl)phenyl)-6-(hydroxymethyl)tetrahydro-2H-pyran-3,4,5-triol] | < 1000 | > 10 |  | 
6 | OCC#CCOc1ccc(Cc2cc([C@@H]3O[C@H](CO)[C@@H](O)[C@H](O)[C@H]3O)ccc2Cl)cc1 [Compound X, (2S,3R,4R,5S,6R)-2-(4-chloro-3-(4-(4-hydroxybut-2-ynyloxy)benzyl)phenyl)-6-(hydroxymethyl)tetrahydro-2H-pyran-3,4,5-triol] | < 1000 | 1 to 10 |  | 
7 | COCC#CCOc1ccc(Cc2cc([C@@H]3O[C@H](CO)[C@@H](O)[C@H](O)[C@H]3O)ccc2Cl)cc1 [Compound Z, (2S,3R,4R,5S,6R)-2-(4-chloro-3-(4-(4-methoxybut-2-ynyloxy)benzyl)phenyl)-6-(hydroxymethyl)tetrahydro-2H-pyran-3,4,5-triol] | < 1000 | > 10 |  | 
